In the supplement of paper PMC13380429:

Tests used:
Conditions in all cases: 72 h
Calu-3 [1] = assay: relative viability EC50 (midpoint between 100% and the lowest measured viability); higher = less toxic
Caco-2 [2] = assay: as above
Vero E6 [3] = assay: as above
HepG2 [4] = assay: as above
U2OS [5] = assay: as above
Calu-3 [6] = assay: cell viability relative to DMSO; higher = less toxic
Caco-2 [7] = assay: as above
Vero E6 [8] = assay: as above
HepG2 [9] = assay: as above
U2OS [10] = assay: as above
Calu-3 [11] = assay: drug sensitivity score (DSS) for viability; higher = more toxic; extreme values may be limits of the assay
Caco-2 [12] = assay: as above
Vero E6 [13] = assay: as above
HepG2 [14] = assay: as above
U2OS [15] = assay: as above

Compound | relative viability EC50 (Calu-3 [1]) [µM] | relative viability EC50 (Caco-2 [2]) [µM] | relative viability EC50 (Vero E6 [3]) [µM] | relative viability EC50 (HepG2 [4]) [µM] | relative viability EC50 (U2OS [5]) [µM] | cell viability (Calu-3 [6]; 1 nM) [%] | cell viability (Calu-3 [6]; 10 nM) [%] | cell viability (Calu-3 [6]; 100 nM) [%] | cell viability (Calu-3 [6]; 1000 nM) [%] | cell viability (Calu-3 [6]; 10000 nM) [%] | cell viability (Caco-2 [7]; 1 nM) [%] | cell viability (Caco-2 [7]; 10 nM) [%] | cell viability (Caco-2 [7]; 100 nM) [%] | cell viability (Caco-2 [7]; 1000 nM) [%] | cell viability (Caco-2 [7]; 10000 nM) [%] | cell viability (Vero E6 [8]; 1 nM) [%] | cell viability (Vero E6 [8]; 10 nM) [%] | cell viability (Vero E6 [8]; 100 nM) [%] | cell viability (Vero E6 [8]; 1000 nM) [%] | cell viability (Vero E6 [8]; 10000 nM) [%] | cell viability (HepG2 [9]; 1 nM) [%] | cell viability (HepG2 [9]; 10 nM) [%] | cell viability (HepG2 [9]; 100 nM) [%] | cell viability (HepG2 [9]; 1000 nM) [%] | cell viability (HepG2 [9]; 10000 nM) [%] | cell viability (U2OS [10]; 1 nM) [%] | cell viability (U2OS [10]; 10 nM) [%] | cell viability (U2OS [10]; 100 nM) [%] | cell viability (U2OS [10]; 1000 nM) [%] | cell viability (U2OS [10]; 10000 nM) [%] | drug sensitivity score (Calu-3 [11]) | drug sensitivity score (Caco-2 [12]) | drug sensitivity score (Vero E6 [13]) | drug sensitivity score (HepG2 [14]) | drug sensitivity score (U2OS [15])
CNC(=O)c1cc2c(cn1)[nH]c1ccccc12 [FG-7142] | > 10 | > 10 | > 10 | > 10 | > 10 | 96.9 | 91.8 | 98.2 | 100 | 103 | 97.7 | 104 | 92.2 | 89.8 | 88.2 | 102 | 95.7 | 98.2 | 100 | 101 | 101 | 88.4 | 107 | 96.3 | 110 | 98.2 | 100 | 96.9 | 100 | 96.9 | 0 | 0.8 | 0 | 0 | 0
CC(=O)N1CCC(NC(=O)c2ccc(F)cc2)CC1 [FK-962] | > 10 | > 10 | > 10 | > 10 | > 10 | 108 | 98.7 | 101 | 99.5 | 95.8 | 101 | 97.4 | 104 | 108 | 114 | 98.1 | 87.7 | 98.3 | 88.5 | 94.3 | 107 | 104 | 134 | 92.6 | 108 | 97.8 | 97.9 | 98.6 | 103 | 94.4 | 0 | 0 | 0 | 0 | 0
c1ccc([C@@H]2C[C@H]2NC2CCNCC2)cc1 [GSK-LSD-1] | > 10 | > 10 | > 10 | > 10 | > 10 | 102 | 88 | 96.8 | 95.8 | 93.4 | 98.5 | 95.2 | 96.5 | 87.1 | 92.2 | 97.1 | 99.4 | 96.4 | 101 | 95.6 | 92.6 | 96.4 | 93 | 98.8 | 97.2 | 102 | 98.1 | 104 | 94.6 | 104 | 0 | 0 | 0 | 0 | 0
CC(C)[C@@H](CN1CC[C@@](C)(c2cccc(O)c2)[C@@H](C)C1)NC(=O)[C@H]1Cc2ccc(O)cc2CN1 [JDTic] | > 10 | > 10 | > 10 | > 10 | > 10 | 103 | 103 | 95 | 109 | 83.2 | 91.9 | 95.2 | 96.7 | 93.3 | 98.5 | 99.4 | 98 | 97.6 | 95.1 | 102 | 100 | 95.6 | 99.4 | 101 | 99.6 | 96.7 | 104 | 95.5 | 101 | 102 | 0.2 | 0 | 0 | 0 | 0
COC(=O)[C@@H](N)CCCNC(=N)N[N+](=O)[O-] [L-NAME] | > 10 | > 10 | > 10 | > 10 | > 10 | 96 | 106 | 99.6 | 94.7 | 114 | 94.6 | 97.3 | 94.4 | 97.8 | 106 | 97.7 | 96.6 | 99.9 | 98.6 | 105 | 97.4 | 104 | 94.5 | 95.4 | 116 | 101 | 97.9 | 103 | 101 | 110 | 0 | 0 | 0 | 0 | 0
CC(=O)NCCNc1cc(Cl)nn2c(-c3cccc(S(=O)(=O)N(C)C)c3)c(C)nc12 [MI-14] | > 10 | > 10 | > 10 | > 10 | > 10 | 99.1 | 96.2 | 98.2 | 102 | 75.8 | 99.1 | 92.2 | 99.5 | 93.1 | 83.3 | 95.6 | 98 | 96.5 | 93.2 | 93.5 | 102 | 89.4 | 87.4 | 77.2 | 78.8 | 98.8 | 101 | 99.6 | 98.2 | 89.5 | 0.8 | 0.9 | 0 | 4.4 | 0
CC(C)(C)CCN1C[C@@H]2[C@@H](CNC(=O)c3cc(Cl)cc(Cl)c3)[C@@H]2C1 [ML218] | > 10 | > 10 | > 10 | > 10 | > 10 | 108 | 109 | 104 | 99.6 | 90.7 | 104 | 97.4 | 97.4 | 92.8 | 88.6 | 101 | 101 | 103 | 100 | 91.8 | 95.2 | 108 | 96.3 | 96.9 | 92.7 | 99.7 | 97.9 | 96.8 | 102 | 93.1 | 0 | 0 | 0 | 0 | 0
